According to patent US8815857B2 (Boehringer Ingelheim International GmbH, priority 2011, dated 2014):
Converted amounts (≈) assume the structure as drawn.

Experiments:
[1] = biological target: T1, Recombinant human soluble guanylate cyclase (sGC), alpha 1 / beta 1 subunits, heme-free (Homo sapiens, UniProt Q02108+Q02153); test: Molecular assay: cGMP formation by heme-free recombinant sGC (CisBio cGMP detection kit); format: biochemical; conditions: 300 pM heme-free sGC, 37° C., 60 min, cGMP readout; read-out: EC50 nM, Activity of Compounds in Molecular Assay
T1 construct: histidine tag (C); made in house; host or cells: Sf9 insect cells (baculovirus coinfection)
T1 sequence (Q02108 1-690 partner): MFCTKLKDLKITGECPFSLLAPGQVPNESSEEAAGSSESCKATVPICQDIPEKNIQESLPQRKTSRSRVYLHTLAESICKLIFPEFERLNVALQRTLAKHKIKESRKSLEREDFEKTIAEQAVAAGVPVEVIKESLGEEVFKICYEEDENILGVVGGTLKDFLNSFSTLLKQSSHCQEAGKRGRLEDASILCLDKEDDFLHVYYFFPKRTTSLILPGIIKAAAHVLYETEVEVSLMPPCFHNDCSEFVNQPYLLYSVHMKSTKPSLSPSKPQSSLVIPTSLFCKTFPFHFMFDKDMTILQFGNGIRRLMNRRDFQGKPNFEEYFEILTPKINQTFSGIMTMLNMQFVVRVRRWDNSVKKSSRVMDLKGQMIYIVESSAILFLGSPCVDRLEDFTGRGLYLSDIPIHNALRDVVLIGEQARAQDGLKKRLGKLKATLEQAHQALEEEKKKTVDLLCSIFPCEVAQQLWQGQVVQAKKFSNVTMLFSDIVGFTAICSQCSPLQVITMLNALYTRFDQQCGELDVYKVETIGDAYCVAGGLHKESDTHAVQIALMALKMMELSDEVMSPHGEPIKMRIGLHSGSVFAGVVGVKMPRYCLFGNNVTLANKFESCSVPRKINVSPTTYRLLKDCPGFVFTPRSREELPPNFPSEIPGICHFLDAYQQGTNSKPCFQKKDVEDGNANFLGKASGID
T1 sequence (Q02153 1-619): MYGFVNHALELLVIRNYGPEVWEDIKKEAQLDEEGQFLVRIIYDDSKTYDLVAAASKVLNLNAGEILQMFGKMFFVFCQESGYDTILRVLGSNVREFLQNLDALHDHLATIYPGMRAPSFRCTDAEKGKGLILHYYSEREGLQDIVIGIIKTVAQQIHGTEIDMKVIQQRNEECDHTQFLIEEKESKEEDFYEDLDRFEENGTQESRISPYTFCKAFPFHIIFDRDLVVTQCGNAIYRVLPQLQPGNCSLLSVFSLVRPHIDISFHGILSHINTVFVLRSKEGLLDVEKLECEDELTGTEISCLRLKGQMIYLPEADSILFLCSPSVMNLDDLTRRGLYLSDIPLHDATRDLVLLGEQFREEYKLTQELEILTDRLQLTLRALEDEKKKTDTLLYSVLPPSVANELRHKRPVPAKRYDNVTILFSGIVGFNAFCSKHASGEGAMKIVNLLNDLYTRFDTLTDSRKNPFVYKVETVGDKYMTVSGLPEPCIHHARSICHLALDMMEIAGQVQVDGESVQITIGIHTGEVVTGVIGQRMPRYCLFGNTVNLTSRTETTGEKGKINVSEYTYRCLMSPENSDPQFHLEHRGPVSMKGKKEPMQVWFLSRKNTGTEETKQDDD
Outline: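 Heme-free His-tagged sGC (Sf9-expressed, Tween 20-treated lysate) at 300 pM incubated with compounds (1% DMSO) for 60 min at 37° C in MOPS pH 6.8 with 50 nM GTP, IBMX, TCEP. cGMP quantified by HTRF against calibration curve; EC50 from combined undiluted/diluted values.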

[2] = Assessment of solubility: HT solubility in pION buffer, UV spectrophotometry; conditions: 16-19 h incubation, 1.0% DMSO; for solubility: pION system solution buffer, kinetic from dmso stock
Protocol: Solubility is measured by the following method.
DMSO stock samples at 10 mM concentration are prepared. […] The samples are pierced and 100 ul of thawed samples are transferred into the PCR plate for analysis. Each sample is run in duplicate at each pH (pH 4.5 and 7.4). Up to 95 samples can be run in replicate at 2 pH's+1 DMSO (blank).
Preparation of pH 4.5 and 7.4 Buffers:
• pH 4.5 buffer:—To 12.5 of system solution (pION)qs to 500 mL of distilled water (pH 2.85-2.90); adjust the pH to pH 4.5 with 0.5 N NaOH. • pH 7.4 buffer: To 12.5 of system solution (pION)qs to 500 mL of distilled water (pH 2.85-2.90); adjust the pH to pH 7.4 with 0.5N NaOH. […] Procedure: Preparation of UV Blank Plate:
75 ul of buffer (pH 7.4 or pH 4.5) is added to UV plate followed by addition of 70 ul of N-propanol. The solution is mixed and the blank spectrum is read using spectrophotometer.
Preparation of Reference UV Plate:
10 ul of each stock sample (including DMSO control) is added to 190 ul of N-propanol to prepare the reference stock plate. Reference stock samples are mixed and 5 ul of each stock sample is added to UV blank plate after it is read spectrophotometrically. The reference stock sample is mixed with blank solution in UV plate and the reference spectrum is read using UV spectrophotometer.
Preparation of Sample for Incubation:
Solubility at pH 7.4:6 ul of each stock sample (including DMSO control) is added to the storage plate containing 600 ul of pH 7.4 buffer, mixed and incubated for 16-19 h. The plate is sealed well during the incubation process. The DMSO content in the sample is 1.0%. The concentration in deep well plates is 100 uM
6 ul of each stock sample (including DMSO control) is added to the deep well plate containing 600 ul of pH 4.5 buffer, mixed and incubated for 16-19 h. The plate is sealed well during the incubation process. The DMSO content in the sample is 1.0%. The concentration in deep well plates is 100 uM
Preparation of Sample UV Plate:
At the end of the incubation period, 100 uL of sample from the storage plate is vacuum filtered using a filter plate. This step wets the filters and the filtrate is discarded. Another 200 ul of the sample from the deep well plate is vacuum filtered using the same filter block but a clean filter plate. 75 ul of the filtrate from the filter plate is transferred to a UV sample plate. 75 ul of N-propanol is added to this UV plate. The solution is mixed and the spectrum is read using the UV spectrophotometer.
The spectra collected for blank, reference and sample from 250-498 nm is analyzed using pION software. If the sample precipitates out, the solubility is reported as XX μg/ml.

[3] = pH 4.5, pH 4.5, aqueous buffer, Solubility (pH 4.5), pH 4.5 buffer
[4] = pH 7.4, pH 7.4, aqueous buffer, Solubility (pH 7.4), pH 7.4 buffer

SMILES	EC50 [1] [nM]	solubility [2, 3] [µg/mL]	solubility [2, 4] [µg/mL]	Solubility (pH 4.5) ([2]; pH 4.5 buffer) [μg/mL]	Solubility (pH 7.4) ([2]; pH 7.4 buffer) [μg/mL]
Cc1ccc(OCc2ccc(CN3CCOCC3)cc2C)c(-c2csc(N(C)CCCC(=O)O)n2)c1 [Compound 179]	990	> 55	> 55	–	–
Cc1cc(CN2CCS(=O)(=O)CC2)ccc1COc1ccc(Cl)cc1-c1csc(N2CCC(C(=O)O)CC2)n1 [Compound 133]	45	0.2 (≈ 0.339 µM)	> 58	–	–
Cc1ccc(OCc2ccc(CN(C)CC3CCOCC3)cc2C#N)c(-c2csc(N3CCC(C(=O)O)CC3)n2)c1 [Compound 112]	400	> 68	> 68	–	–
Cc1ccc(OCc2ccc(C(=O)N3CCCCC3)cc2C)c(-c2csc(C3=CCC(C(=O)O)CC3)n2)c1 (stereo not drawn) [Compound 32]	310	0.15 (≈ 0.283 µM)	29 (≈ 54.6 µM)	–	–
Cc1cc(CN2CCOCC2)ccc1COc1ccc(F)cc1-c1csc(N2C3CCC2CC(C(=O)O)C3)n1 (stereo not drawn) [Compound 80]	740	> 62	> 62	–	–
Cc1ccc(OCc2ccc(CN3CCOCC3)cc2C)c(-c2csc(NCCC(=O)O)n2)c1 [Compound 3]	1300	> 52	> 52	–	–
Cc1ccc(OCc2ccc(CN3CCC(S(C)(=O)=O)CC3)cc2C)c(-c2csc(N3CCC(C(=O)O)CC3)n2)c1 [Compound 138]	180	> 70	> 70	–	–
Cc1ccc(OCc2ccc(CN(C)CC3CCCCC3)cc2C)c(-c2csc(N3CCC(C(=O)O)CC3)n2)c1 [Compound 91]	730	31 (≈ 55.2 µM)	12 (≈ 21.4 µM)	–	–
COCCCN(C)C(=O)c1ccc(COc2ccc(C)cc2-c2csc(N3CCC(C(=O)O)CC3)n2)c(C#N)c1 [Compound 92]	78	20 (≈ 35.5 µM)	12 (≈ 21.3 µM)	–	–
Cc1ccc(OCc2ccc(C(=O)N3CCC(O)CC3)cc2C#N)c(-c2csc(N3CCC(C(=O)O)CC3)n2)c1 [Compound 90]	150	35 (≈ 62.4 µM)	> 56	–	–
Cc1cc(C(=O)N2CCCCC2)ccc1COc1ccc(Cl)cc1-c1csc(N2CCC(C(=O)O)C(C)C2)n1 (stereo not drawn) [Compound 103]	17	0.3 (≈ 0.528 µM)	35 (≈ 61.6 µM)	–	–
Cc1ccc(OCc2ccc(C(=O)N3CCC(F)(F)CC3)cc2C)c(-c2csc(N3CCC(C(=O)O)CC3)n2)c1 [Compound 106]	100	0.3 (≈ 0.527 µM)	> 56	–	–
Cc1cc(C(=O)N2CCCCC2)ccc1COc1ccc(F)cc1-c1csc(N2CCC(C(=O)O)CC2C)n1 (stereo not drawn) [Compound 79]	50	0.25 (≈ 0.453 µM)	> 55	–	–
Cc1cc(CN2CCS(=O)(=O)CC2)ccc1COc1ccc(C#N)cc1-c1csc(N2CCC(C(=O)O)C(C)C2)n1 (stereo not drawn) [Compound 135]	2700	0.45 (≈ 0.757 µM)	> 59	–	–
Cc1ccc(OCc2ccc(CN3CCS(=O)(=O)CC3)cc2C)c(-c2csc(N3CCC(C(=O)O)CC3)n2)c1 [Compound 104]	19	0.35 (≈ 0.614 µM)	> 68	–	–
CC(=O)N1CCN(Cc2ccc(COc3c(C)cccc3-c3csc(N4CCC(C(=O)O)CC4)n3)c(C)c2)CC1 [Compound 95]	35	> 56	> 56	–	–
Cc1cc(CN2CCOCC2)ccc1COc1c(-c2csc(N3CCC(C(=O)O)CC3)n2)cccc1C(F)(F)F [Compound 113]	56	> 57	> 57	–	–
Cc1ccc(OCc2ccc(CN3CCN(S(C)(=O)=O)CC3)cc2C)c(-c2csc(N3CCC(C(=O)O)CC3)n2)c1 [Compound 196]	110	16 (≈ 26.7 µM)	37 (≈ 61.8 µM)	–	–
Cc1cc(CN2CCOCC2)ccc1COc1ccc(F)cc1-c1csc(N2CCC(C(=O)O)C(C)C2)n1 (stereo not drawn) [Compound 58]	480	44 (≈ 81.5 µM)	> 61	–	–

SMILES	EC50 [1] [nM]	solubility [2, 3] [µg/mL]	solubility [2, 4] [µg/mL]	Solubility (pH 4.5) ([2]; pH 4.5 buffer) [μg/mL]	Solubility (pH 7.4) ([2]; pH 7.4 buffer) [μg/mL]
Cc1ccc(OCc2ccc(CN3CCOCC3)cc2C)c(-c2csc(N3CCC(C)(C(=O)O)CC3)n2)c1 [Compound 51]	1100	> 58	31 (≈ 57.9 µM)	–	–
Cc1cc(CN2CCCC(C(N)=O)C2)ccc1COc1c(C)cccc1-c1csc(N2CCC(C(=O)O)CC2)n1 (stereo not drawn) [Compound 94]	770	> 56	> 56	–	–
Cc1ccc(OCc2ccc(CN3CCS(=O)(=O)CC3)cc2C)c(-c2csc(N3CC4CCC(C3)C4C(=O)O)n2)c1 (stereo not drawn) [Compound 136]	6.1	0.45 (≈ 0.755 µM)	> 59	–	–
Cc1cc(CN2CCOCC2)ccc1COc1c(C#N)cccc1-c1csc(N2CCC(C(=O)O)CC2)n1 [Compound 35]	280	> 53	> 53	–	–
Cc1ccc(OCc2ccc(C(=O)N3CCOCC3)cc2C#N)c(-c2csc(N3CCC(C(=O)O)CC3)n2)c1 [Compound 70]	180	0.45 (≈ 0.823 µM)	> 54	–	–
N#Cc1cc(CN2CCS(=O)(=O)CC2)ccc1COc1c(Cl)cccc1-c1csc(N2CCC(C(=O)O)CC2)n1 [Compound 140]	79	1.8 (≈ 2.99 µM)	> 60	–	–
Cc1cc(CN2CCS(=O)(=O)CC2)ccc1COc1c(C)cccc1-c1csc(N2CCC(C(=O)O)CC2)n1 [Compound 105]	37	8.9 (≈ 15.6 µM)	> 56	–	–
Cc1cc(C(=O)N2CCCCC2)ccc1COc1ccc(F)cc1-c1csc(N2CC3C(C2)C3C(=O)O)n1 (stereo not drawn) [Compound 55]	360	0.3 (≈ 0.56 µM)	> 53	–	–
Cc1ccc(OCc2ccc(CN3CCOCC3)cc2C)c(-c2csc(N[C@H]3CC[C@@H](C(=O)O)C3)n2)c1 [Compound 181]	3100	> 52	> 52	–	–
Cc1ccc(OCc2ccc(CN3CCOCC3)cc2C)c(-c2csc(C3=CCC(C(=O)O)CC3)n2)c1 (stereo not drawn) [Compound 10]	4900	14 (≈ 27 µM)	22 (≈ 42.4 µM)	–	–
Cc1ccc(OCc2ccc(CN3CCOCC3)cc2C)c(-c2csc(N3CC(C(=O)O)C3)n2)c1 [Compound 215]	1000	> 60	> 60	–	–
Cc1cc(C(=O)N2CCCCC2)ccc1COc1ccccc1-c1csc([C@H]2CC[C@H](C(=O)O)CC2)n1 [Compound 12]	4000	–	> 51	0.1	–
Cc1ccc(OCc2ccc(CNCC(C)(C)O)cc2C)c(-c2csc(N3CCC(C(=O)O)CC3)n2)c1 [Compound 25]	1300	> 63	> 63	–	–
Cc1cc(C(=O)N2CCCCC2)ccc1COc1ccc(F)cc1-c1csc(N2CCC(C(=O)O)CC2)n1 [Compound 59]	39	0.5 (≈ 0.93 µM)	> 53	–	–
Cc1cc(CN2CCOCC2)ccc1COc1ccc(Cl)cc1-c1csc(N2CC3CCC(C2)C3C(=O)O)n1 (stereo not drawn) [Compound 99]	690	4.7 (≈ 8.27 µM)	13 (≈ 22.9 µM)	–	–
Cc1cc(CN2CCS(=O)(=O)CC2)ccc1COc1ccc(F)cc1-c1csc(N2C3CCC2CC(C(=O)O)C3)n1 (stereo not drawn) [Compound 139]	380	0.6 (≈ 1 µM)	> 59	–	–
Cc1cc(CN2CCOCC2)ccc1COc1ccccc1-c1csc(N2CCC(C(=O)O)C(C)C2)n1 (stereo not drawn) [Compound 2]	320	–	–	>71	>71
Cc1cc(CN2CCS(=O)(=O)CC2)ccc1COc1c(-c2csc(N3CCC(C(=O)O)CC3)n2)cccc1C(F)(F)F [Compound 151]	9.9	0.15 (≈ 0.24 µM)	> 62	–	–
